Where “and” joins values, the source holds several entries; their conditions need not be identical. Equal values may be shown once.
Tests used:
[1] = tested on: Sarcoma 180 ascites; assay: S180a screening (Sarcoma 180 ascites tumor model), increase in life span; type: in vivo, CFW mice; conditions: for Surv.: survivors on day of evaluation
Method: CFW mice, averaging 20 g, are innoculated on day zero with 0.2 mL of a freshly prepared saline suspension (0.15 M NaCI) containing 1 × 10^7 tumor cells/mL, or a total of 2 x 10^6 cells. On day I, the mice are injected with the test compound in the selected medium (usually water). Six mice are used per test dose, with six doses normally being run.
Also, on day one, two types of controls (6 mice/set are employed: (1) Normal (1 set): 0.5 mL of the solvent medium used for the test compound, and (2) Positive control (1 set): cis-[Pt(NH3)2Cl2] in saline at 8 mg/kg.
The effectiveness of a compound is measured in terms of the increase in life span (ILS) of the test animals relative to the controls calculated from the day of tumor inoculation (day zero). The day of evaluation is arbitrarily taken as that day corresponding to twice the mean life-span of the normal controls. This sets a practical upper limit of 100% on the ILS attainable. For calculation purposes, survivors on the day of evaluation are considered to have died on that day. The % ILS is formulated as: [formula]
ILS values above 50% represent activity. The positive controls must have an ILS of ≧ 50% for the test to be valid.

[2] = Toxicity testing: BUN (kidney toxicity); type: in vivo, mice; conditions: for BUN: change vs. controls
Method: (§1) (PVA = 2-phosphonovalerate). Based on the screening results, initial dosing was established at approximately twice the peak active dose in the SI80 screen. […] WBC was measured by lysing the red blood cells with 3% acetic acid and counting the white cells using a haemocytometer.
(§2) Data obtained for Na[Pt(trans-R,R-dach)(PVA)] was taken at 240 mg/kg. […] Average cage weights for the test mice were also taken over the seven day test period.

[3] = Toxicity testing: WBC (myelosuppression); type: in vivo, mice; conditions: for WBC: change vs. controls
Method: as §1, §2

[4] = tested on: L1210 leukemia; assay: L1210 screening (L1210 leukemia tumor model), increase in life span; type: in vivo, Female CDF1 mice
Method: Female CDF1 mice (16-22 g) are injected with a suspension of 1 x 10^6 tumor cells in 0.5 mL of 0.15 M saline on day zero. On day one, the mice receive the test compound in 0.5 mL of the chosen medium (usually water). Six mice were used for each test dose, with six doses normally being run. Normal controls (six mice) receive tumor on day zero and 0.5 mL of the test medium on day one. Positive controls (six mice) receive tumor on day zero and 8 mg/kg cisplatin in 0.5 mL of 0.15 M saline on day one. All compound doses are adjusted for the actual average weight of the mice involved. Testing is terminated at three times the normal control mean life span. The percent increase in lifespan (ILS) is calculated as follows: %ILS = [(mean life span (test)/mean life span(control)-I]x100 A 25% ILS or greater indicates activity. The maximum possible ILS is 200%. The positive control must have an ILS of S 25% for the test to be considered valid.
The tumor line is maintained by transfer of 5 x 10^4- cells in 0.1 mL saline every seven days. DBA/2 (18-22 g) mice are employed for tumor transfers

[5] = Toxicity testing: hematocrit and average cage weights; type: in vivo, mice; conditions: 240 mg/kg
Method: (PVA = 2-phosphonovalerate). Based on the screening results, initial dosing was established at approximately twice the peak active dose in the SI80 screen. Both a cisplatin control, also run at twice the peak active dose, and a negative control experiment, were run for comparative purposes. BUN was measured by using a kit manufactured by Harleco (No. 64667). WBC was measured by lysing the red blood cells with 3% acetic acid and counting the white cells using a haemocytometer.
Data obtained for Na[Pt(trans-R,R-dach)(PVA)] was taken at 240 mg/kg. […] Myelosuppresion however, was apparent. The WBC depression for this compound was 63% relative to controls. […] Average cage weights for the test mice were also taken over the seven day test period. The mice lost an average of 5.9 g (27.3%) of body weight over this time.

[6] = dose 40.00 mg/kg on day 1, vehicle water
[7] = dose 80.00 mg/kg on day 1, vehicle water
[8] = dose 160.00 mg/kg on day 1, vehicle water
[9] = dose 10.00 mg/kg on day 1, vehicle water
[10] = dose 10.00 mg/kg on day 1, vehicle water, survivors
[11] = dose 20.00 mg/kg on day 1, vehicle water
[12] = dose 20.00 mg/kg on day 1, vehicle water, survivors
[13] = dose 40.00 mg/kg on day 1, vehicle water, survivors
[14] = dose 80.00 mg/kg on day 1, vehicle water, survivors
[15] = dose 160.00 mg/kg on day 1, vehicle water, survivors
[16] = dose 320.00 mg/kg on day 1, vehicle water
[17] = dose 320.00 mg/kg on day 1, vehicle water, survivors

Row | Compound | %ILS [1, 6] | Surv. [1, 6] | %ILS [1, 7] | Surv. [1, 7] | %ILS [1, 8] | Surv. [1, 8] | %ILS [4, 9] | Surv. [4, 10] | %ILS [4, 11] | Surv. [4, 12] | %ILS [4, 6] | Surv. [4, 13] | %ILS [4, 7] | Surv. [4, 14] | %ILS [4, 8] | Surv. [4, 15] | %ILS [4, 16] | Surv. [4, 17] | %ILS [1, 9] | Surv. [1, 9] | other results
1 | CCCC1C(=O)[O][Pt][O]P1(=O)[O-].NC1CCCCC1N.[Na+] (mixture of isomers) [Ex 18, Na[Pt(trans-R,R-dach)(2-phosphonovaierate)]] | 77% | 1/ 6 | 92% | 5/ 6 | 44% | 1/ 6 | 36% | 0/ 6 | 25% | 0/ 6 | 33% | 0/ 6 | 33% | 0/ 6 | 109% | 0/ 6 | 24% | 1/ 6 | – | – | BUN decrease vs. controls ([2]; 240 mg/kg): 4%; average BUN level ([2]; 240 mg/kg, test mice): 34.7 mg/dL; BUN ([2]; dose 240 mg/kg): -4%; kidney toxicity ([2]; judged from BUN elevation): not kidney toxic at this dose; WBC depression relative to controls ([3]; 240 mg/kg): 63%; WBC ([3]; dose 240 mg/kg): -63%; hematocrits (ratio of packed red blood cells to volume of whole blood) [5]: low hematocrits
2 | CCC(C)(C(=O)[O-])P(=O)([O-])[O-].N[C@@H]1CCCC[C@H]1N.[Na+].[Pt+2] (relative stereo) [Ex 22, Na[Pt(trans-R,R-dach)(2-methyl-2-phosphonobutyrate)]] | 82% | 4/ 6 | 100% | 6/ 6 | 86% | 2/ 6 | 45% | 0/ 6 | 35% | 0/ 6 | 70% | 1/ 6 | 94% | 1/ 6 | 114% | 3/ 6 | -39% | 0/ 6 | 28% | 1/ 6 | %ILS [1, 11]: 20%; Surv. [1, 11]: 0/ 6; %ILS [1, 16]: -78%; Surv. [1, 16]: 0/ 6
3 | N[C@@H]1CCCC[C@H]1N.O=C1[O][Pt][O]P1(=O)[O-].[Na+] [Ex 20, Na[Pt(trans-R,R-dach)(phosphonoformate)]] | 7% | 0/ 6 | 18% | 0/ 6 | 59% | 0/ 6 | -17% | 0/ 6 | -20% | 0/ 6 | -14% | 0/ 6 | -7% | 0/ 6 | 11% | 0/ 6 | 20% | 0/ 6 | 6% | 0/ 6 | %ILS [1, 11]: -5%; Surv. [1, 11]: 0/ 6; %ILS [1, 16]: 55%; Surv. [1, 16]: 0/ 6
4 | Na[Pt(trans-R, R-dach)(2-phosphono-1,7-heptanedicarboxylate)] [Ex 23] | 45% | 2/ 6 | 86% | 4/ 6 | 34% | 4/ 6 | 59% | 0/ 6 | 67% | 0/ 6 | 88% | 0/ 6 | 133% | 3/ 6 | 161% | 3/ 6 | -32% | 0/ 6 | 20% | 0/ 6 | %ILS [1, 11]: 31%; Surv. [1, 11]: 0/ 6; %ILS [1, 16]: -37%; Surv. [1, 16]: 1/ 6
5 | cis-[Pt(NH3)2Cl2] [Cisplatin, reference compound] | – | – | – | – | – | – | – | – | – | – | – | – | – | – | – | – | – | – | – | – | POS. CONT. %ILS ([1]; positive control of the same test: cis-[Pt(NH3)2Cl2] in saline at 8 mg/kg on day 1, listed as POS. CONT., 8 mg/kg): 89% and 85% and 70% and 55% and 94% and 74% and 86% and 68%; POS. CONT. Surv. ([1]; positive control of the same test: cis-[Pt(NH3)2Cl2] in saline at 8 mg/kg on day 1, survivors, listed as POS. CONT., 8 mg/kg): 4/ 6 and 3/ 6 and 2/ 6 and 1/ 6; BUN ([2]; dose 15 mg/kg): +98%; WBC ([3]; dose 15 mg/kg): -7%; POS. CONT. Surv. ([4]; positive control of the same test: 8 mg/kg cisplatin in 0.15 M saline on day 1, survivors, listed as POS. CONT.): 0/ 6 and 1/ 6 and 3/ 6 and 2/ 6
